# Reference: patent publication US8895756B2, “Bendamustine pharmaceutical compositions” (priority 2005, dated 2014)
# Experiment: HPLC stability of bendamustine (15 mg/mL, mannitol 25.5 mg/mL) in alcohol/water solutions at 5° C.
# Assay type: physicochemical
# Settings: 5° C.
# Protocol: A sample of each formulation was analyzed by HPLC after 0, 3, 6 and 24 hours when stored at 5° C.
compound,measurement,setting,value
"Cl.Cn1c(CCCC(=O)O)nc2cc(N(CCCl)CCCl)ccc21 [bendamustine, 4-{5-[Bis(2-chloroethyl)amino]-1-methyl-2-benzimidazolyl}butyric acid]",Dimer (%),"1.9% Ethanol, 0 hours",0.12%
same,HP1 (%),"1.9% Ethanol, 0 hours",0.64%
same,Purity (% Area),"1.9% Ethanol, 0 hours",99.11 % Area
same,Dimer (%),"1.9% Ethanol, 3 hours",0.14%
same,HP1 (%),"1.9% Ethanol, 3 hours",0.90%
same,Purity (% Area),"1.9% Ethanol, 3 hours",98.83 % Area
same,Dimer (%),"1.9% Ethanol, 6 hours",0.15%
same,HP1 (%),"1.9% Ethanol, 6 hours",1.12%
same,Purity (% Area),"1.9% Ethanol, 6 hours",98.60 % Area
same,Dimer (%),"1.9% Ethanol, 24 hours",0.27%
same,HP1 (%),"1.9% Ethanol, 24 hours",3.41%
same,Purity (% Area),"1.9% Ethanol, 24 hours",96.16 % Area
same,Dimer (%),"5% Butanol, 0 hours",0.13%
same,HP1 (%),"5% Butanol, 0 hours",0.49%
same,Dimer (%),"5% Butanol, 3 hours",0.14%
same,Dimer (%),"5% Butanol, 6 hours",0.14%
same,HP1 (%),"5% Butanol, 6 hours",0.91%
same,Purity (% Area),"5% Butanol, 6 hours",98.76 % Area
same,Dimer (%),"5% Butanol, 24 hours",0.21%
same,HP1 (%),"5% Butanol, 24 hours",2.20%
same,Purity (% Area),"5% Butanol, 24 hours",97.46 % Area
same,Dimer (%),"5% Ethanol, 0 hours",0.12%
same,HP1 (%),"5% Ethanol, 0 hours",0.44%
same,Purity (% Area),"5% Ethanol, 0 hours",99.31 % Area
same,Dimer (%),"5% Ethanol, 3 hours",0.13%
same,HP1 (%),"5% Ethanol, 3 hours",0.64%
same,Purity (% Area),"5% Ethanol, 3 hours",99.10 % Area
same,Dimer (%),"5% Ethanol, 6 hours",0.14%
same,HP1 (%),"5% Ethanol, 6 hours",0.86%
same,Purity (% Area),"5% Ethanol, 6 hours",98.87 % Area
same,Dimer (%),"5% Ethanol, 24 hours",0.25%
same,HP1 (%),"5% Ethanol, 24 hours",2.68%
same,Purity (% Area),"5% Ethanol, 24 hours",96.89 % Area
same,Dimer (%),"5% Iso-propanol, 0 hours",0.13%
same,HP1 (%),"5% Iso-propanol, 0 hours",0.48%
same,Purity (% Area),"5% Iso-propanol, 0 hours",99.21 % Area
same,Dimer (%),"5% Iso-propanol, 3 hours",0.14%
same,HP1 (%),"5% Iso-propanol, 3 hours",0.72%
same,Purity (% Area),"5% Iso-propanol, 3 hours",98.65 % Area
same,Dimer (%),"5% Iso-propanol, 6 hours",0.14%
same,HP1 (%),"5% Iso-propanol, 6 hours",1.02%
same,Purity (% Area),"5% Iso-propanol, 6 hours",98.56 % Area
same,Dimer (%),"5% Iso-propanol, 24 hours",0.26%
same,HP1 (%),"5% Iso-propanol, 24 hours",3.35%
same,Purity (% Area),"5% Iso-propanol, 24 hours",96.14 % Area
same,Dimer (%),"5% Methanol, 0 hours",0.12%
same,HP1 (%),"5% Methanol, 0 hours",0.40%
same,Purity (% Area),"5% Methanol, 0 hours",99.35 % Area
same,Dimer (%),"5% Methanol, 3 hours",0.14%
same,HP1 (%),"5% Methanol, 3 hours",0.70%
same,Purity (% Area),"5% Methanol, 3 hours",98.97 % Area
same,Dimer (%),"5% Methanol, 6 hours",0.14%
same,HP1 (%),"5% Methanol, 6 hours",0.95%
same,Purity (% Area),"5% Methanol, 6 hours",98.66 % Area
same,Dimer (%),"5% Methanol, 24 hours",0.23%
same,HP1 (%),"5% Methanol, 24 hours",2.83%
same,Purity (% Area),"5% Methanol, 24 hours",96.65 % Area
same,Dimer (%),"5% Tert-butanol, 0 hours",0.12%
same,HP1 (%),"5% Tert-butanol, 0 hours",0.41%
same,Purity (% Area),"5% Tert-butanol, 0 hours",99.34 % Area
same,Dimer (%),"5% Tert-butanol, 3 hours",0.14%
same,HP1 (%),"5% Tert-butanol, 3 hours",0.64%
same,Purity (% Area),"5% Tert-butanol, 3 hours",99.10 % Area
same,Dimer (%),"5% Tert-butanol, 6 hours",0.13%
same,HP1 (%),"5% Tert-butanol, 6 hours",0.88%
same,Purity (% Area),"5% Tert-butanol, 6 hours",98.85 % Area
same,Dimer (%),"5% Tert-butanol, 24 hours",0.20%
same,HP1 (%),"5% Tert-butanol, 24 hours",2.09%
same,Purity (% Area),"5% Tert-butanol, 24 hours",97.58 % Area
same,Dimer (%),"5% n-Propanol, 0 hours",0.13%
same,HP1 (%),"5% n-Propanol, 0 hours",0.43%
same,Purity (% Area),"5% n-Propanol, 0 hours",99.25 % Area
same,Dimer (%),"5% n-Propanol, 3 hours",0.15%
same,HP1 (%),"5% n-Propanol, 3 hours",0.66%
same,Purity (% Area),"5% n-Propanol, 3 hours",99.00 % Area
same,Dimer (%),"5% n-Propanol, 6 hours",0.16%
same,HP1 (%),"5% n-Propanol, 6 hours",0.94%
same,Purity (% Area),"5% n-Propanol, 6 hours",98.72 % Area
same,Dimer (%),"5% n-Propanol, 24 hours",0.26%
same,HP1 (%),"5% n-Propanol, 24 hours",2.33%
same,Purity (% Area),"5% n-Propanol, 24 hours",97.24 % Area
same,Dimer (%),"10% Butanol, 0 hours",0.11%
same,HP1 (%),"10% Butanol, 0 hours",0.30%
same,Purity (% Area),"10% Butanol, 0 hours",99.44 % Area
same,Dimer (%),"10% Butanol, 3 hours",0.12%
same,HP1 (%),"10% Butanol, 3 hours",0.49%
same,Purity (% Area),"10% Butanol, 3 hours",99.18 % Area
same,Dimer (%),"10% Butanol, 6 hours",0.12%
same,HP1 (%),"10% Butanol, 6 hours",0.64%
same,Purity (% Area),"10% Butanol, 6 hours",99.03 % Area
same,Dimer (%),"10% Butanol, 24 hours",0.17%
same,HP1 (%),"10% Butanol, 24 hours",1.55%
same,Purity (% Area),"10% Butanol, 24 hours",98.13 % Area
same,Dimer (%),"10% Ethanol, 0 hours",0.11%
same,HP1 (%),"10% Ethanol, 0 hours",0.33%
same,Purity (% Area),"10% Ethanol, 0 hours",99.44 % Area
same,Dimer (%),"10% Ethanol, 3 hours",0.12%
same,HP1 (%),"10% Ethanol, 3 hours",0.48%
same,Purity (% Area),"10% Ethanol, 3 hours",99.28 % Area
same,Dimer (%),"10% Ethanol, 6 hours",0.12%
same,HP1 (%),"10% Ethanol, 6 hours",0.65%
same,Purity (% Area),"10% Ethanol, 6 hours",99.10 % Area
same,Dimer (%),"10% Ethanol, 24 hours",0.18%
same,HP1 (%),"10% Ethanol, 24 hours",1.57%
same,Purity (% Area),"10% Ethanol, 24 hours",98.03 % Area
same,Dimer (%),"10% Iso-propanol, 0 hours",0.12%
same,HP1 (%),"10% Iso-propanol, 0 hours",0.37%
same,Purity (% Area),"10% Iso-propanol, 0 hours",99.32 % Area
same,Dimer (%),"10% Iso-propanol, 3 hours",0.14%
same,HP1 (%),"10% Iso-propanol, 3 hours",0.55%
same,Purity (% Area),"10% Iso-propanol, 3 hours",99.11 % Area
same,Dimer (%),"10% Iso-propanol, 6 hours",0.16%
same,HP1 (%),"10% Iso-propanol, 6 hours",0.75%
same,Purity (% Area),"10% Iso-propanol, 6 hours",98.85 % Area
same,Dimer (%),"10% Iso-propanol, 24 hours",0.21%
same,HP1 (%),"10% Iso-propanol, 24 hours",1.92%
same,Purity (% Area),"10% Iso-propanol, 24 hours",97.68 % Area
same,Dimer (%),"10% Methanol, 0 hours",0.11%
same,HP1 (%),"10% Methanol, 0 hours",0.34%
same,Purity (% Area),"10% Methanol, 0 hours",99.42 % Area
same,Dimer (%),"10% Methanol, 3 hours",0.12%
same,HP1 (%),"10% Methanol, 3 hours",0.59%
same,Purity (% Area),"10% Methanol, 3 hours",99.01 % Area
same,Dimer (%),"10% Methanol, 6 hours",0.12%
same,HP1 (%),"10% Methanol, 6 hours",0.80%
same,Purity (% Area),"10% Methanol, 6 hours",98.86 % Area
same,Dimer (%),"10% Methanol, 24 hours",0.18%
same,HP1 (%),"10% Methanol, 24 hours",1.85%
same,Purity (% Area),"10% Methanol, 24 hours",97.65 % Area
same,Dimer (%),"10% Tert-butanol, 0 hours",0.11%
same,HP1 (%),"10% Tert-butanol, 0 hours",0.30%
same,Purity (% Area),"10% Tert-butanol, 0 hours",99.46 % Area
same,Dimer (%),"10% Tert-butanol, 3 hours",0.12%
same,HP1 (%),"10% Tert-butanol, 3 hours",0.48%
same,Purity (% Area),"10% Tert-butanol, 3 hours",99.26 % Area
same,Dimer (%),"10% Tert-butanol, 6 hours",0.13%
same,HP1 (%),"10% Tert-butanol, 6 hours",0.69%
same,Purity (% Area),"10% Tert-butanol, 6 hours",99.05 % Area
same,Dimer (%),"10% Tert-butanol, 24 hours",0.19%
same,HP1 (%),"10% Tert-butanol, 24 hours",1.64%
same,Purity (% Area),"10% Tert-butanol, 24 hours",98.04 % Area
same,Dimer (%),"10% n-Propanol, 0 hours",0.15%
same,HP1 (%),"10% n-Propanol, 0 hours",0.33%
same,Purity (% Area),"10% n-Propanol, 0 hours",99.34 % Area
same,Dimer (%),"10% n-Propanol, 3 hours",0.14%
same,HP1 (%),"10% n-Propanol, 3 hours",0.48%
same,Purity (% Area),"10% n-Propanol, 3 hours",99.17 % Area
same,Dimer (%),"10% n-Propanol, 6 hours",0.16%
